According to patent EP0028279A1, “Phthalide-isoquinoline derivatives, their preparation and their use in medicaments” (CALAIRE CHIMIE S.A., priority 1979, dated 1981):

Columns and labels:
[1] = parameters: species or system souris; conditions: in vivo
Description: (§1) La toxicité a été déterminée de manière habituelle.

[2] = Acute toxicity (LD50), oral, mouse; conditions: in vivo, read-out: DL 50 (the source's name)
Description: as §1

[3] = molecular target: T1, histidine décarboxylase de rein de cobaye (Cavia porcellus, UniProt H0WB71); assay: Kidney histidine decarboxylase activity after in vivo administration (method of Kosmicki et al.); conditions: guinea pigs sacrificed 5 hours after administration, reduction versus controls, read-out: Activité exprimée en % d'inhibition de l'enzyme
T1 construct: le pourcentage de réduction de l'activité de l'enzyme du rein des animaux traités; from tissue; host or cells: guinea pig kidney
T1 sequence (H0WB71 1-642): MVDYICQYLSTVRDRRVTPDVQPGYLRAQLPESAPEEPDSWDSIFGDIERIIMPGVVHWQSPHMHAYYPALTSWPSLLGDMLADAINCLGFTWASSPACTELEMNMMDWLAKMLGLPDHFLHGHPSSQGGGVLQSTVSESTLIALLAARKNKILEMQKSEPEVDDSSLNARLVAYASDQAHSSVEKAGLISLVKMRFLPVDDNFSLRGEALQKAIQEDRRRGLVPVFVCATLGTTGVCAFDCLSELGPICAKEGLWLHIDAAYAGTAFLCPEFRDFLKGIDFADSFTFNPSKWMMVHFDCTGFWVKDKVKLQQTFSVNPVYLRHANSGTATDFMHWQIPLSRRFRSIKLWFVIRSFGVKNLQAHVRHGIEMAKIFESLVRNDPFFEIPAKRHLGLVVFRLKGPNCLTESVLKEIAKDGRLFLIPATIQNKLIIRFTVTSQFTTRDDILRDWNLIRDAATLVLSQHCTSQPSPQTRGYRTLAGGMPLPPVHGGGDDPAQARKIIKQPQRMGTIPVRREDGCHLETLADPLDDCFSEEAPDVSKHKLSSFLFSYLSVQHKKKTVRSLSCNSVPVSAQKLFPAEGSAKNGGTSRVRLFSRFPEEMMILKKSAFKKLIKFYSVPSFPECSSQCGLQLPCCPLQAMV
Description: L'activité du composé 458L a été comparée à celle de la tritoqualine qui est à la connaissance des Demandeurs, le seul produit utilisé en thérapeutique pour cette propriété. La technique de mesure de l'activité de l'histidine décarboxylase de rein de cobaye a été décrite par B. Kosmicki et al (J. Pharmacol. Paris 1974 - 5 - 3 - 331 - 342). Les cobayes ont été sacrifiés cinq heures après l'administration des substances étudiées. Il a été déterminé par rapport aux témoins le pourcentage de réduction de l'activité de l'enzyme du rein des animaux traités. Les résultats obtenus sont rapportés dans le tableau ci-dessous : […]

| SMILES | toxicité chronique [1] | LD50 [2] [mg/kg] | inhibition at 10 mg/kg [3] [%] | inhibition at 20 mg/kg [3] [%] | inhibition at 40 mg/kg [3] [%] | inhibition at 60 mg/kg [3] [%] |
| --- | --- | --- | --- | --- | --- | --- |
| CCOc1c(N)c2c(c(OCC)c1OCC)C(C1c3c(cc(OC)c(OC)c3OC)CCN1C)OC2=O (stereo not shown) [458 L] | bonne tolérance | ~6000 | 14 | 21 | 31 | 41 |
| CCOc1c(N)c2c(c(OCC)c1OCC)C(C1c3c(cc4c(c3OC)OCO4)CCN1C)OC2=O (stereo not shown) [Tritoqualine, tritoqualine, reference compound] | – | – | 10 | 20 | 20 | 22 |
